The record followed here is ChEMBL document CHEMBL1129306, “3-((4-(4-Chlorophenyl)piperazin-1-yl)-methyl)-1H-pyrrolo-2,3-b-pyridine: an antagonist with high affinity and selectivity for the human dopamine D4 receptor” (J Med Chem, 1996).

SMILES strings stand for the structures.

The Ki is a measure of affinity in units of concentration, obtained from inhibition or displacement. Read a low Ki as a stronger hold on the target.

One test addresses T1, D(4) dopamine receptor (Homo sapiens, UniProt P21917).
T1 sequence (P21917 whole entry): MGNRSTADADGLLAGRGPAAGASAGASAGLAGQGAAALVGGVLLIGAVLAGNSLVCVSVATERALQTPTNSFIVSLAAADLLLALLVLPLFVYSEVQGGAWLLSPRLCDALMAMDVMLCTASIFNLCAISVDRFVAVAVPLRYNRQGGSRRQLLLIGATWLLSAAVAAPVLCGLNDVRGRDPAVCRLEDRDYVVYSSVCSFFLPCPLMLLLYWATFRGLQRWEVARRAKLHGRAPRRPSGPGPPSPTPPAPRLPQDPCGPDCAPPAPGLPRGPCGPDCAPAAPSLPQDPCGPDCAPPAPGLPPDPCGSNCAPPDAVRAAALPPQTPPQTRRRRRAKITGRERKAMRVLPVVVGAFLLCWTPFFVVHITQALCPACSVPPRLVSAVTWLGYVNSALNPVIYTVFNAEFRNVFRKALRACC
The test can be described thus: biochemical.

For another test, the target named is D(3) dopamine receptor (Homo sapiens, UniProt P35462). Description: biochemical.
Chain of D(3) dopamine receptor (P35462 whole entry): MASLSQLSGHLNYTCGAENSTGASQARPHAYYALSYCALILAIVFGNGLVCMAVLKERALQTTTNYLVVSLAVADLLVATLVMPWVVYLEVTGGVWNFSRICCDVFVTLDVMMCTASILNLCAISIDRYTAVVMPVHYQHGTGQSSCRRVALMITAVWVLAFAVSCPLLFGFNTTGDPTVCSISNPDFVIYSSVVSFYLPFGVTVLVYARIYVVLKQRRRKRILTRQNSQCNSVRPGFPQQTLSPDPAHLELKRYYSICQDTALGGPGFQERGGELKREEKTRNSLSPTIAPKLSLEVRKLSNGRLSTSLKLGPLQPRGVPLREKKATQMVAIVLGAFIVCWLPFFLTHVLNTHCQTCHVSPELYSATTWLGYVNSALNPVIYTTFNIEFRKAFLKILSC

Description for D(3) dopamine receptor: Binding affinity towards cloned human Dopamine receptor D3 stably expressed in CHO cells was evaluated using [3H]spiperone as radioligand
Description for D(4) dopamine receptor: Binding affinity towards cloned human Dopamine receptor D4 stably expressed in CHO cells was evaluated using [3H]spiperone as radioligand

Consider `c1ccc(C2CCN(Cc3c[nH]c4ccccc34)CC2)cc1`, for which the Ki on D(4) dopamine receptor stood at 25 nM; at D(3) dopamine receptor it was 95 nM.

As for `c1ccc2c(CN3CCCCC3)c[nH]c2c1`, the values for the Ki on D(4) dopamine receptor and on D(3) dopamine receptor were greater than 2600 nM and greater than 3700 nM, respectively.

Regarding `OC1(c2ccc(Cl)cc2)CCN(Cc2c[nH]c3ccccc23)CC1`, the results for the Ki at D(4) dopamine receptor and on D(3) dopamine receptor were 220 nM and 100 nM, respectively.

Consider `CC1CCN(Cc2c[nH]c3ccccc23)CC1`, for which the Ki amounted to 570 nM on D(4) dopamine receptor and 6700 nM at D(3) dopamine receptor.

Regarding `c1ccc(N2CCN(Cc3c[nH]c4ccccc34)CC2)cc1`, the Ki at D(4) dopamine receptor amounted to 8 nM; at D(3) dopamine receptor, 280 nM.

With `Ic1ccc(N2CCN(Cc3c[nH]c4ncccc34)CC2)cc1`, the figures for the Ki at D(4) dopamine receptor and at D(3) dopamine receptor were 0.51 nM and greater than 4500 nM, respectively.
